Measurements as given in ChEMBL document CHEMBL2073867, “cDNA cloning and inducible expression of human multidrug resistance associated protein 3 (MRP3)” (FEBS Lett, 1998).

What was measured:
[1] = target: Multidrug resistance-associated protein 1 (Homo sapiens, UniProt P33527); assay: (§1) TP_TRANSPORTER: Northern blot from HepG2 cells; assay type: functional, cell-based
[2] = target: Multidrug resistance associated protein (Homo sapiens) (UniProt Q96QA9); assay: as §1; assay type: functional, cell-based
Sequence of Multidrug resistance associated protein (Homo sapiens) (Q96QA9 as listed by the source): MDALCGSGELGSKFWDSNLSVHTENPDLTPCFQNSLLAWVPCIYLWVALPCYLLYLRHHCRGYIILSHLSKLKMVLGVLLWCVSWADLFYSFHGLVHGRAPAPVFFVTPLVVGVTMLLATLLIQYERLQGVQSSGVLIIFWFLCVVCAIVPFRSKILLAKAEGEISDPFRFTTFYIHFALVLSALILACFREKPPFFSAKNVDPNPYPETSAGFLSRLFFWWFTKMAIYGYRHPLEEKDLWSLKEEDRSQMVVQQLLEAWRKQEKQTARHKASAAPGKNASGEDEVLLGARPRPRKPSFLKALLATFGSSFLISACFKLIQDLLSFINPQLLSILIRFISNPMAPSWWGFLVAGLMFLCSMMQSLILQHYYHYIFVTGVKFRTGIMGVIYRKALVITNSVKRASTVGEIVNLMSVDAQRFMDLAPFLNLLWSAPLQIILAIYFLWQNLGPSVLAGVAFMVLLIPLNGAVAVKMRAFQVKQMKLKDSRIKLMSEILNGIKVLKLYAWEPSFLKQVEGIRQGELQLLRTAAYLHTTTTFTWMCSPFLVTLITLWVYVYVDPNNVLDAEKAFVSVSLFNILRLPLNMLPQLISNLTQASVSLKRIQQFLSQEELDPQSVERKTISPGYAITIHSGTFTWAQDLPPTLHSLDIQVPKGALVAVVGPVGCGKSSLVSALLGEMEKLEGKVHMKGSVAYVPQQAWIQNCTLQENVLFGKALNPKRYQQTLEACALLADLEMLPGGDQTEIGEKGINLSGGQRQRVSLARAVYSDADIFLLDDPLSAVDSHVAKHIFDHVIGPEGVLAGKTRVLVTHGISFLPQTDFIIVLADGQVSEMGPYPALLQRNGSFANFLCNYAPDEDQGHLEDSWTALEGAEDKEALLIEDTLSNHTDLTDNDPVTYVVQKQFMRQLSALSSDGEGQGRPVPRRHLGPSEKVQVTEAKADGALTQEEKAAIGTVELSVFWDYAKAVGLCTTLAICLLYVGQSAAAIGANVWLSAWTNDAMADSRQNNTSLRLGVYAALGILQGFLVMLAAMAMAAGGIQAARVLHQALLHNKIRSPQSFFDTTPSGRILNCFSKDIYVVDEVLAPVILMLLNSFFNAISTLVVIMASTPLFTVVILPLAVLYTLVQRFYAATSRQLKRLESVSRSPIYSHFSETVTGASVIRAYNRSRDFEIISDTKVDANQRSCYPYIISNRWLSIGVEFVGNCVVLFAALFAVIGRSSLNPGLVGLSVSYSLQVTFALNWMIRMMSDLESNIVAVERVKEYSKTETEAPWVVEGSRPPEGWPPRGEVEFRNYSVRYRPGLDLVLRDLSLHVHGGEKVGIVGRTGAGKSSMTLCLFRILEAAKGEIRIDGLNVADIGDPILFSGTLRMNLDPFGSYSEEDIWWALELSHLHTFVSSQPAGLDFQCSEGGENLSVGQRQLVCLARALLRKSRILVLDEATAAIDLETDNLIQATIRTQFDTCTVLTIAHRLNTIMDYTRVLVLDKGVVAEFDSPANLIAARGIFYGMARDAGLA

Sequence of Multidrug resistance-associated protein 1 (P33527 whole entry): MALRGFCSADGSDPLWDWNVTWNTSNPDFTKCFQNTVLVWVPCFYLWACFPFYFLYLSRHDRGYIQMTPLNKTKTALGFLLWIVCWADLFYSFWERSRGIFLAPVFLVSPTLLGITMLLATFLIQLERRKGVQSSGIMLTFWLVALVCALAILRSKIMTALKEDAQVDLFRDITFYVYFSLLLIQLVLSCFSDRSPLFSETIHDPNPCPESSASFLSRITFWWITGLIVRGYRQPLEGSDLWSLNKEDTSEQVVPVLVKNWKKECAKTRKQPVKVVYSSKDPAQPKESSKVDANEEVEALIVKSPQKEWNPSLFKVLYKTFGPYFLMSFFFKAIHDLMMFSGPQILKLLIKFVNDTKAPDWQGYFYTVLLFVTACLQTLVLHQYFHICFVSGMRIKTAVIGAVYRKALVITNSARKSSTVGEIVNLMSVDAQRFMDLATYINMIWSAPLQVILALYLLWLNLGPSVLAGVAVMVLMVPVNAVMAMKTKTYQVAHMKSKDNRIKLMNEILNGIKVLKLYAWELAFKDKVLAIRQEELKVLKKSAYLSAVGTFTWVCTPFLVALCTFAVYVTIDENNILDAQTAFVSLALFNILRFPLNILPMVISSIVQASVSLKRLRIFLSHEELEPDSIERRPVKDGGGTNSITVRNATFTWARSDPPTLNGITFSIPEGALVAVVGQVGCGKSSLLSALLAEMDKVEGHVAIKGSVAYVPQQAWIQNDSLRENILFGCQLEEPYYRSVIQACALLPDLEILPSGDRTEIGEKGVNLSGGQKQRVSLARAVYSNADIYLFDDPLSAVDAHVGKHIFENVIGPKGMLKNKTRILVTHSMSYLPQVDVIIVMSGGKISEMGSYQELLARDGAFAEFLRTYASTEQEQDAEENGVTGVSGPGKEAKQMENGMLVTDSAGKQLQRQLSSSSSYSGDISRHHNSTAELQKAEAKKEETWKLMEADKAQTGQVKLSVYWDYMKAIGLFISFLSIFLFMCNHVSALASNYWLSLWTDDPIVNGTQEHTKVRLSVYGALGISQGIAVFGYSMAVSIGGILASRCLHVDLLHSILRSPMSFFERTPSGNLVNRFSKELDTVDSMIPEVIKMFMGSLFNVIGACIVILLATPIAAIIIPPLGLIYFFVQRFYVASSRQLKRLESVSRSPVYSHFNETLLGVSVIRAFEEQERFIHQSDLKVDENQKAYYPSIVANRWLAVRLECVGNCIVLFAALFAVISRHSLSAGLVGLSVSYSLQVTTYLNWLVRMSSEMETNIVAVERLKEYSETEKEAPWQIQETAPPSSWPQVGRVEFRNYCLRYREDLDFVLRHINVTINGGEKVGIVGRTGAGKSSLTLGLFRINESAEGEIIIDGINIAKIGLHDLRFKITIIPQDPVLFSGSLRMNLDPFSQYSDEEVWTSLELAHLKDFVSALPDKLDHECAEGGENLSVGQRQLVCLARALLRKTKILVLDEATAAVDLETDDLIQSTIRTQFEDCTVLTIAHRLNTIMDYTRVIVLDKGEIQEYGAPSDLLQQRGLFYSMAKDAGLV

`CCC1(c2ccccc2)C(=O)NC(=O)NC1=O` [PHENOBARBITAL] was tested, and the Activity [1] was “inducer [+]” and the Activity [2] was “inducer [+]”.
